Data on 27 compounds can be found in US9433622B2, “Pyrimidine compounds useful in the treatment of diseases mediated by IKKE and/or TBK1 mechanisms” (DOMAINEX LIMITED, priority 2013, dated 2016).

For experiment [1], the target named is IKKε (Homo sapiens (Human), UniProt Q14164). Put plainly: Lanthascreen TR-FRET kinase inhibition assay, IKKε. Format: biochemical. How it is done: (§1) Compounds of the invention (synthesised as described below) were tested for activity against the IKKε and TBK-1 enzyme as follows:
(§2) Inhibitions studies were performed using a time-resolved fluorescence-based Lanthascreen™ assay. Phosphorylation of a fluorescein-labelled substrate peptide is measured using terbium-labeled phosphospecific antibodies.
(§3) Kinase inhibition assays (10 μL) were performed at 20° C. in 384-well plate format. […] The final reaction conditions contained 400 nM fluorescein-IkBα substrate ([…]), 20 μM ATP, 2 nM or 8 nM IKKε or TBK1 kinase respectively, and 3% DMSO in kinase assay buffer consisting of 50 mM HEPES (pH 7.5), 10 mM MgCl, 1 mM EGTA, 0.01% Brij-35.
(§4) Compound dilutions were prepared from 10 mM DMSO stocks by dilution into DMSO.
(§5) The kinase phosphorylation assay was initiated by the addition of the kinase and the reaction was allowed to proceed for 1 h or 2.5 h for IKKε and TBK-1 kinase respectively.

Experiment [2] has as its target TBK1 (Homo sapiens (Human), UniProt Q9UHD2). Put plainly: Lanthascreen TR-FRET kinase inhibition assay, TBK1. Format: biochemical. How it is done: as §1, §2, §3, §4, §5
Where [3] appears, read: 20 μM ATP (apparent Km), 2 nM kinase, 1 h.
Setting [4] is: 20 μM ATP (apparent Km), 8 nM kinase, 2.5 h.

Where two headings read alike, the source gives them in different places.

Chain of IKKε (Q14164 whole entry): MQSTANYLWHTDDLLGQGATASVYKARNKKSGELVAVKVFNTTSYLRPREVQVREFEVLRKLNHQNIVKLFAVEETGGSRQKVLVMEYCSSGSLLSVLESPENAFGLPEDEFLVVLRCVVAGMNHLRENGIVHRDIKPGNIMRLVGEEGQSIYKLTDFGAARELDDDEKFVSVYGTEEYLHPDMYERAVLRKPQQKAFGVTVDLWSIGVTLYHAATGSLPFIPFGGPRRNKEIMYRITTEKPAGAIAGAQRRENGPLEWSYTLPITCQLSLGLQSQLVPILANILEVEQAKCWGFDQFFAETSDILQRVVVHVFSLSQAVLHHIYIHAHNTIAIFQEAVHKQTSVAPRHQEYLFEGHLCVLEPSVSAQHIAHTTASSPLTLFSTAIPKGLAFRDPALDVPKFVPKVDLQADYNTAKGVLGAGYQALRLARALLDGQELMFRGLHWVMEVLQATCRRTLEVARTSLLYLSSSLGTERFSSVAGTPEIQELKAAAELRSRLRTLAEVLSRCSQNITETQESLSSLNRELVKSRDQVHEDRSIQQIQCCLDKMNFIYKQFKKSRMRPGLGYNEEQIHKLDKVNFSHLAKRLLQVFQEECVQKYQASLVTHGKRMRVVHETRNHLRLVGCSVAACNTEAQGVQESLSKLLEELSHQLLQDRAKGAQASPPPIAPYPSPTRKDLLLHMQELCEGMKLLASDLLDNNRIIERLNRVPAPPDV
Chain of TBK1 (Q9UHD2 whole entry): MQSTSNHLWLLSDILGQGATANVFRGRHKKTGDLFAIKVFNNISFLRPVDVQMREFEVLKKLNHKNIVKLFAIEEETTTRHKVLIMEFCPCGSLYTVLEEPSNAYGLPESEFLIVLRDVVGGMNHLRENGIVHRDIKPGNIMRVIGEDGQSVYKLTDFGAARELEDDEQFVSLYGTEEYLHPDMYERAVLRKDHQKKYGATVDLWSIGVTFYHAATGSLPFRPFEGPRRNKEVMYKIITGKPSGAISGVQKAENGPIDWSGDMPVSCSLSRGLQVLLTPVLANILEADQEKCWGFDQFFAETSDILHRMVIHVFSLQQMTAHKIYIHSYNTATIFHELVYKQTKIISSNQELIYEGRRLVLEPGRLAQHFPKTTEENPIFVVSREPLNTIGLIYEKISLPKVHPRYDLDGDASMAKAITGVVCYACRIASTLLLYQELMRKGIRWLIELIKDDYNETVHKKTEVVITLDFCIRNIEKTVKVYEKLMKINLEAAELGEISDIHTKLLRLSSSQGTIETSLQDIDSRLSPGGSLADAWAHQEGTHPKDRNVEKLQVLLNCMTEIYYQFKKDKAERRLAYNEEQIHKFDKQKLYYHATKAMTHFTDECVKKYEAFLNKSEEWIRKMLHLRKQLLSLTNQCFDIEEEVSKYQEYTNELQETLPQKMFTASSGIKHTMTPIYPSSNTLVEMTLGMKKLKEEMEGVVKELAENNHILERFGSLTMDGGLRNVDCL

Regarding `CN1CCC(NC(=O)c2ccc(Nc3ncc(F)c(-c4cnc(N5CC[C@H](F)C5)c(C#N)c4)n3)cc2)CC1` [DMX-28, 4-{4-[5-Cyano-6-((S)-3-fluoro-pyrrolidin-1-yl)-pyridin-3-yl]-5-fluoro-pyrimidin-2-ylamino}-N-(1-methyl-piperidin-4-yl)-benzamide], the concentration for half-maximal inhibition (IC50) in experiment [1] (setting [3]) and in experiment [2] (setting [4]) was below 0.015 µM in each case.
For `N#Cc1cc(-c2ccnc(Nc3ccc(NC(=O)CN4CCC(O)CC4)nc3)n2)cnc1N1CC[C@H](F)C1` [DMX-29, N-(5-{4-[5-Cyano-6-((S)-3-fluoro-pyrrolidin-1-yl)-pyridin-3-yl]-pyrimidin-2-ylamino}-pyridin-2-yl)-2-(4-hydroxy-piperidin-1-yl)-acetamide], the IC50 in experiment [1] (setting [3]) and in experiment [2] (setting [4]) was below 0.03 µM throughout.
In the case of `N#Cc1cc(-c2ccnc(Nc3ccc(CN4CCOCC4)cc3)n2)cnc1N1CC[C@H](F)C1` [DMX-30, 2-((S)-3-Fluoro-pyrrolidin-1-yl)-5-[2-(4-morpholin-4-ylmethyl-phenylamino)-pyrimidin-4-yl]-nicotinonitrile], the concentration for half-maximal inhibition (IC50) in experiment [1] (setting [3]) and in experiment [2] (setting [4]) was below 0.015 µM in each case.
In the case of `N#Cc1cc(-c2ccnc(Nc3ccc(NC(=O)CN4CCNCC4)nc3)n2)cnc1N1CC[C@H](F)C1` [DMX-31, N-(5-{4-[5-Cyano-6-((S)-3-fluoro-pyrrolidin-1-yl)-pyridin-3-yl]-pyrimidin-2-ylamino}-pyridin-2-yl)-2-piperazin-1-yl-acetamide], the concentration for half-maximal inhibition (IC50) in experiment [1] (setting [3]) is below 0.1 µM; in experiment [2] (setting [4]), below 0.03 µM.
In the case of `CC(C(=O)Nc1ccc(Nc2nccc(-c3cnc(N4CC[C@H](F)C4)c(C#N)c3)n2)cn1)N1CCOCC1` (stereo partly drawn) [DMX-32, N-(5-{4-[5-Cyano-6-((S)-3-fluoro-pyrrolidin-1-yl)-pyridin-3-yl]-pyrimidin-2-ylamino}-pyridin-2-yl)-2-morpholin-4-yl-propionamide], the IC50 in experiment [1] (setting [3]) and in experiment [2] (setting [4]) was below 0.03 µM in each case.
`N#Cc1cc(-c2ccnc(Nc3cnn(C4CCOCC4)c3)n2)cnc1N1CC[C@H](F)C1` [DMX-33, 2-((S)-3-Fluoro-pyrrolidin-1-yl)-5-{2-[1-(tetrahydro-pyran-4-yl)-1H-pyrazol-4-ylamino]-pyrimidin-4-yl}-nicotinonitrile]: the IC50 in experiment [1] (setting [3]) and in experiment [2] (setting [4]) was below 0.015 µM throughout.
`N#Cc1cc(-c2ccnc(Nc3ccnc(NC(=O)CN4CCOCC4)c3)n2)cnc1N1CC[C@H](F)C1` [DMX-34, N-(4-{4-[5-Cyano-6-((S)-3-fluoro-pyrrolidin-1-yl)-pyridin-3-yl]-pyrimidin-2-ylamino}-pyridin-2-yl)-2-morpholin-4-yl-acetamide]: the IC50 in experiment [1] (setting [3]) and in experiment [2] (setting [4]) was below 0.03 µM throughout.
On to `N#Cc1cc(-c2ccnc(Nc3ccc(NC(=O)CN4CC[C@H](O)C4)nc3)n2)cnc1N1CC[C@H](F)C1` [DMX-35, N-(5-{4-[5-Cyano-6-((S)-3-fluoro-pyrrolidin-1-yl)-pyridin-3-yl]-pyrimidin-2-ylamino}-pyridin-2-yl)-2-((S)-3-hydroxy-pyrrolidin-1-yl)-acetamide], for which the half-maximal inhibitory concentration (IC50) in experiment [1] was below 0.03 µM; in experiment [2] (setting [4]), below 0.1 µM.
For the compound `N#Cc1cc(-c2ccnc(Nc3cnn(CCO)c3)n2)cnc1N1CCCC1` [DMX-36, 5-{2-[1-(2-Hydroxy-ethyl)-1H-pyrazol-4-ylamino]-pyrimidin-4-yl}-2-pyrrolidin-1-yl-nicotinonitrile], the IC50 in experiment [1] (setting [3]) and in experiment [2] (setting [4]) was below 0.03 µM in each case.
With `N#Cc1cc(-c2ccnc(Nc3ccc(C(N)=O)cc3)n2)cnc1N1CCCC1` [DMX-37, 4-[4-(5-Cyano-6-pyrrolidin-1-yl-pyridin-3-yl)-pyrimidin-2-ylamino]-benzamide], the IC50 in experiment [1] (setting [3]) and in experiment [2] (setting [4]) was below 0.015 µM in each case.
Regarding `N#Cc1cc(-c2ccnc(Nc3cnn(C[C@H](O)CO)c3)n2)cnc1N1CCCC1` [DMX-38, 5-{2-[1-((S)-2,3-Dihydroxy-propyl)-1H-pyrazol-4-ylamino]-pyrimidin-4-yl}-2-pyrrolidin-1-yl-nicotinonitrile], the half-maximal inhibitory concentration (IC50) in experiment [1] (setting [3]) is below 0.1 µM; in experiment [2] (setting [4]), below 0.015 µM.
In the same order, the values of `N#Cc1cc(-c2ccnc(Nc3cnn(C[C@@H](O)CO)c3)n2)cnc1N1CCCC1` [DMX-39, 5-{2-[1-((R)-2,3-Dihydroxy-propyl)-1H-pyrazol-4-ylamino]-pyrimidin-4-yl}-2-pyrrolidin-1-yl-nicotinonitrile] are below 0.03 µM and below 0.015 µM.
As to `Cn1cc(Nc2nccc(-c3cnc(N4CCC[C@@H]4C(=O)O)c(C#N)c3)n2)cn1` [DMX-40, (R)-1-{3-Cyano-5-[2-(1-methyl-1H-pyrazol-4-ylamino)-pyrimidin-4-yl]-pyridin-2-yl}-pyrrolidine-2-carboxylic acid], the concentration for half-maximal inhibition (IC50) in experiment [1] (setting [3]) was below 9 µM; in experiment [2] (setting [4]), below 1 µM.
For `Cn1cc(NC(=O)[C@H]2CCCN2c2ncc(-c3ccnc(Nc4cnn(C)c4)n3)cc2C#N)cn1` [DMX-41, (R)-1-{3-Cyano-5-[2-(1-methyl-1H-pyrazol-4-ylamino)-pyrimidin-4-yl]-pyridin-2-yl}-pyrrolidine-2-carboxylic acid (1-methyl-1H-pyrazol-4-yl)-amide], the concentration for half-maximal inhibition (IC50) in experiment [1] (setting [3]) was below 1 µM; in experiment [2] (setting [4]), below 0.1 µM.
Consider `Cn1cc(Nc2nccc(-c3cnc(N4CCC[C@H]4C#N)c(C#N)c3)n2)cn1` [DMX-42, 2-((S)-2-Cyano-pyrrolidin-1-yl)-5-[2-(1 methyl-1H-pyrazol-4-ylamino)-pyrimidin-4-yl]-nicotinonitrile], for which the IC50 in experiment [1] (setting [3]) is below 1 µM; in experiment [2] (setting [4]), below 0.1 µM.
Consider `Cn1cc(Nc2nccc(-c3cnc(N4CCC[C@@H]4C(N)=O)c(C#N)c3)n2)cn1` [DMX-43, (R)-1-{3-Cyano-5-[2-(1-methyl-1H-pyrazol-4-ylamino)-pyrimidin-4-yl]-pyridin-2-yl}-pyrrolidine-2-carboxylic acid amide], for which the half-inhibitory concentration (IC50) in experiment [1] (setting [3]) and in experiment [2] (setting [4]) was below 0.1 µM each time.
`Cn1cc(Nc2nccc(-c3cnc(N4C5CCC4CC(O)C5)c(C#N)c3)n2)cn1` (stereo not drawn) [DMX-44, 2-(3-Hydroxy-8-aza-bicyclo[3.2.1]oct-8-yl)-5-[2-(1-methyl-1H-pyrazol-4-ylamino)-pyrimidin-4-yl]-nicotinonitrile]: the results for the half-maximal inhibitory concentration (IC50) in experiment [1] and in experiment [2] were below 0.03 µM and below 0.015 µM, respectively.
Consider `Cn1cc(Nc2nccc(-c3cnc(N4C5CCC4COC5)c(C#N)c3)n2)cn1` [DMX-45, 5-[2-(1-Methyl-1H-pyrazol-4-ylamino)-pyrimidin-4-yl]-2-(3-oxa-8-aza-bicyclo[3.2.1]oct-8-yl)-nicotinonitrile], for which the IC50 in experiment [1] (setting [3]) and in experiment [2] (setting [4]) was below 0.1 µM in each case.
For the compound `N#Cc1cc(-c2ccnc(Nc3cnn(CCO)c3)n2)cnc1N1C2CCC1COC2` [DMX-46, 5-{2-[1-(2-Hydroxy-ethyl)-1H-pyrazol-4-ylamino]-pyrimidin-4-yl}-2-(3-oxa-8-aza-bicyclo[3.2.1]oct-8-yl)-nicotinonitrile], the IC50 was below 1 µM in experiment [1] (setting [3]) and below 0.1 µM in experiment [2] (setting [4]).
For the compound `N#Cc1cc(-c2ccnc(Nc3ccc(C(N)=O)nc3)n2)cnc1N1CC[C@H](F)C1` [DMX-47, 5-{4-[5-Cyano-6-((S)-3-fluoro-pyrrolidin-1-yl)-pyridin-3-yl]-pyrimidin-2-ylamino}-pyridine-2-carboxylic acid amide], the IC50 in experiment [1] (setting [3]) and in experiment [2] (setting [4]) was below 0.03 µM throughout.
`N#Cc1cc(-c2ccnc(Nc3ccc(C(=O)NCCO)cc3)n2)cnc1N1CC[C@H](F)C1` [DMX-48, 4-{4-[5-Cyano-6-((S)-3-fluoro-pyrrolidin-1-yl)-pyridin-3-yl]-pyrimidin-2-ylamino}-N-(2-hydroxy-ethyl)-benzamide]: the IC50 in experiment [1] (setting [3]) and in experiment [2] (setting [4]) was below 0.015 µM each time.
For the compound `N#Cc1cc(-c2ccnc(Nc3ccc(N4CCOCC4)cc3)n2)cnc1N1CC[C@H](O)C1` [DMX-49, 2-((S)-3-Hydroxy-pyrrolidin-1-yl)-5-[2-(4-morpholin-4-yl-phenylamino)-pyrimidin-4-yl]-nicotinonitrile], the IC50 in experiment [1] (setting [3]) and in experiment [2] (setting [4]) was below 0.015 µM throughout.
Turning to `N#Cc1cc(-c2ccnc(Nc3ccc(N4CCOCC4)nc3)n2)cnc1N1CC[C@H](O)C1` [DMX-50, 2-((S)-3-Hydroxy-pyrrolidin-1-yl)-5-[2-(6-morpholin-4-yl-pyridin-3-ylamino)-pyrimidin-4-yl]-nicotinonitrile], the half-maximal inhibitory concentration (IC50) in experiment [1] (setting [3]) is below 0.1 µM; in experiment [2] (setting [4]), below 0.03 µM.
For `N#Cc1cc(-c2ccnc(Nc3cnn(CCO)c3)n2)cnc1N1CC[C@H](F)C1` [DMX-51, 2-((S)-3-Fluoro-pyrrolidin-1-yl)-5-{2-[1-(2-hydroxy-ethyl)-1H-pyrazol-4-ylamino]-pyrimidin-4-yl}-nicotinonitrile] the same measures were below 0.03 µM and below 0.03 µM.
For the compound `N#Cc1cc(-c2ccnc(Nc3cnn(CCCO)c3)n2)cnc1N1CC[C@H](F)C1` [DMX-52, 2-((S)-3-Fluoro-pyrrolidin-1-yl)-5-{2-[1-(3-hydroxy-propyl)-1H-pyrazol-4-ylamino]-pyrimidin-4-yl}-nicotinonitrile], the concentration for half-maximal inhibition (IC50) in experiment [1] (setting [3]) was below 0.1 µM; in experiment [2] (setting [4]), below 0.03 µM.
For the compound `N#Cc1cc(-c2ccnc(Nc3cnn(CCN4CCOCC4)c3)n2)cnc1N1CC[C@H](F)C1` [DMX-53, 2-((S)-3-Fluoro-pyrrolidin-1-yl)-5-{2-[1-(2-morpholin-4-yl-ethyl)-1H-pyrazol-4-ylamino]-pyrimidin-4-yl}-nicotinonitrile], the IC50 in experiment [1] (setting [3]) was below 0.1 µM; in experiment [2] (setting [4]), below 0.03 µM.
For the compound `COCCNCC(=O)Nc1ccc(Nc2nccc(-c3cnc(N4CC[C@H](F)C4)c(C#N)c3)n2)cn1` [DMX-54, N-(5-{4-[5-Cyano-6-((S)-3-fluoro-pyrrolidin-1-yl)-pyridin-3-yl]-pyrimidin-2-ylamino}-pyridin-2-yl)-2-(2-methoxy-ethylamino)-acetamide], the 50% inhibitory concentration (IC50) in experiment [1] (setting [3]) was below 0.03 µM; in experiment [2] (setting [4]), below 0.1 µM.
